Reference: patent US4451450A, “Cationic compounds useful for making radiodiagnostic agents” (New England Nuclear Corporation, priority 1981, dated 1984)

Test system: Rabbit Heart
Assay: Imaging of rabbit heart (scintillation camera, intravenous injection)
Assay type: in vivo
Conditions: 2 mCi i.v., 2.5 Kg male New Zealand Albino rabbit, approximately 10 minutes after injection
Protocol: 2 mCi of Thallium-201 (as thallous chloride in physiological saline containing 0.9% benzyl alcohol) is injected intravenously into a 2.5 Kg male New Zealand Albino rabbit. The rabbit is positioned under a Searle Pho-Gamma scintillation camera in such a way that the heart and lung area are covered by the field of view.
Greater than 1 mCi of the ^99m Tc-labelled product of Example 3 is injected into a rabbit and imaged as in Example 16.

Substance: Thallium-201
- image of the heart (reference Tl-201): sufficient counts are accumulated to produce an image of the heart analogous to that seen in clinical studies of humans
